Assay results from PubChem BioAssay AID256 (DTP/NCI, 2004).
“And” between values parts separate entries of the source, which are not always exact repeats. Identical values can stand only once. Toxic doses and inconclusive results are not listed. The calls were made as follows: active = survival T/C of 150% or more; inactive = T/C below 125% in these data.

System: CD2F1 mice, L1210 leukemia ip, survival T/C
Experiment: NCI In Vivo Anticancer Drug Screen. Data for tumor model L1210 Leukemia (intraperitoneal) in CD2F1 (CDF1) mice
Details: higher = longer survival
Summary of the method: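 Tumor-bearing mice (transplanted tumor) were split into treated and vehicle control groups, and the measured endpoint of each treated group was divided by that of its vehicle controls.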

[1] = endpoint: mean survival time, dose: 50.0 mg/kg/injection, schedule: Q01DX009 (ip), vehicle: saline with Tween-80
[2] = endpoint: mean survival time, dose: 100.0 mg/kg/injection, schedule: Q01DX009 (ip), vehicle: saline with Tween-80
[3] = endpoint: mean survival time, dose: 200.0 mg/kg/injection, schedule: Q01DX009 (ip), vehicle: saline with Tween-80
[4] = endpoint: mean survival time, dose: 400.0 mg/kg/injection, schedule: Q01DX009 (ip), vehicle: saline with Tween-80
[5] = endpoint: mean survival time, dose: 100.0 mg/kg/injection, schedule: Q04DX003 (ip), vehicle: saline with Tween-80
[6] = endpoint: mean survival time, dose: 200.0 mg/kg/injection, schedule: Q04DX003 (ip), vehicle: saline with Tween-80
[7] = endpoint: mean survival time, dose: 400.0 mg/kg/injection, schedule: Q04DX003 (ip), vehicle: saline with Tween-80
[8] = endpoint: mean survival time, dose: 100.0 mg/kg/injection, schedule: Q01DX001 (ip), vehicle: saline
[9] = endpoint: mean survival time, dose: 200.0 mg/kg/injection, schedule: Q01DX001 (ip), vehicle: saline
[10] = endpoint: mean survival time, dose: 400.0 mg/kg/injection, schedule: Q01DX001 (ip), vehicle: saline
[11] = endpoint: mean survival time, dose: 12.5 mg/kg/injection, schedule: Q01DX009 (ip), vehicle: saline with Tween-80
[12] = endpoint: mean survival time, dose: 100.0 mg/kg/injection, schedule: Q01DX001 (ip), vehicle: Klucel (hydroxypropylcellulose) (HPC)
[13] = endpoint: mean survival time, dose: 200.0 mg/kg/injection, schedule: Q01DX001 (ip), vehicle: Klucel (hydroxypropylcellulose) (HPC)
[14] = endpoint: mean survival time, dose: 400.0 mg/kg/injection, schedule: Q01DX001 (ip), vehicle: Klucel (hydroxypropylcellulose) (HPC)

Measured: T/C

Nc1cc2nc3ccccc3sc-2cc1=O
inactive: [1] 102 % of control | [2] 102 % of control | [3] 102 % of control | [4] 89 % of control

CC(=O)Oc1ccc2c3c(cccc13)CC2
inactive: [5] 98 % of control | [6] 98 % of control | [7] 98 % of control

OCC(O)C1OC(OC2CCCCC2)C(O)C(O)C1O (stereo unspecified)
inactive: [8] 95 % of control | [9] 101 % of control | [10] 96 % of control

CCCCCCCCCCCC[n+]1c(C)cc(N)c2ccccc21
inactive: endpoint: mean survival time, dose: 1.25 mg/kg/injection, schedule: Q01DX001 (ip), vehicle: other 103 % of control | endpoint: mean survival time, dose: 5.0 mg/kg/injection, schedule: Q01DX001 (ip), vehicle: other 101 % of control

CC(=[N-])CC(C)=O.CC(=[N-])CC(C)=O.[Cu+2]
inactive: endpoint: mean survival time, dose: 3.13 mg/kg/injection, schedule: Q01DX009 (ip), vehicle: saline with Tween-80 100 % of control | endpoint: mean survival time, dose: 6.25 mg/kg/injection, schedule: Q01DX009 (ip), vehicle: saline with Tween-80 95 % of control | [11] 90 % of control

CCCC(C(=O)O)C(CCC)C(=O)O (stereo unspecified)
inactive: [5] 96 % of control | [6] 104 % of control | [7] 101 % of control

COc1cc(OC)c(NC(=O)C(=O)Nc2cc(Cl)c(OC)cc2OC)cc1Cl
inactive: [1] 88 % of control | [2] 88 % of control | [3] 91 % of control

CNC(=O)OCC1C(=O)C2C(CN(C)C3=C1C(=O)C(N)=C(C)C3=O)N2C (stereo unspecified)
inactive: endpoint: mean survival time, dose: 83.0 mg/kg/injection, schedule: Q01DX001 (ip), vehicle: carboxymethylcellulose (CMC) 106 % of control | endpoint: mean survival time, dose: 125.0 mg/kg/injection, schedule: Q01DX001 (ip), vehicle: carboxymethylcellulose (CMC) 102 % of control | endpoint: mean survival time, dose: 187.0 mg/kg/injection, schedule: Q01DX001 (ip), vehicle: carboxymethylcellulose (CMC) 118 % of control

COc1cc2c(cc1OC)C(Cc1ccccc1[N+](=O)[O-])=NCC2
inactive: [8] 101 % of control | [9] 94 % of control | [10] 95 % of control

Nc1ncnc2c1nc(Br)n2C1OC(CO)C(O)C1O (stereo unspecified)
inactive: endpoint: mean survival time, dose: 100.0 mg/kg/injection, schedule: Q04DX002 (ip), vehicle: saline with Tween-80 95 % of control | endpoint: mean survival time, dose: 200.0 mg/kg/injection, schedule: Q04DX002 (ip), vehicle: saline with Tween-80 98 % of control | endpoint: mean survival time, dose: 400.0 mg/kg/injection, schedule: Q04DX002 (ip), vehicle: saline with Tween-80 98 % of control

CC(=O)/C=C\c1cc(C)ccc1O
inactive: [12] 95 % of control | [13] 103 % of control | [14] 100 % of control

C=C(C)C(=O)OCCN(C)C (tested in a mixture with another compound)
inactive: [2] 97 % of control | [5] 100 % of control | [3] 106 % of control | [6] 122 % of control | [7] 92 % of control

c1ccc2c[n+](CCCCCCCCCC[n+]3ccc4ccccc4c3)ccc2c1
inactive: endpoint: mean survival time, dose: 8.0 mg/kg/injection, schedule: Q01DX001 (ip), vehicle: saline 88 % of control | endpoint: mean survival time, dose: 32.0 mg/kg/injection, schedule: Q01DX001 (ip), vehicle: saline 88 % of control

[Se]=[P+](OC1CCCCC1)OC1CCCCC1
inactive: [8] 90 % of control | [9] 92 % of control | [10] 92 % of control

CN(Cc1ccccc1)C(=O)C(=O)c1c[nH]c2ccccc12
inactive: [2] 95 % of control | [5] 98 % of control | [3] 89 % of control | [6] 87 % of control | [4] 91 % of control | [7] 90 % of control

O=c1[nH]cnc2c1cnn2CN1CCOCC1
inactive: endpoint: median survival time, dose: 25.0 mg/kg/injection, schedule: Q01DX009 (ip), vehicle: Klucel (hydroxypropylcellulose) (HPC) 106 % of control | endpoint: median survival time, dose: 50.0 mg/kg/injection, schedule: Q01DX009 (ip), vehicle: Klucel (hydroxypropylcellulose) (HPC) 106 % of control | endpoint: median survival time, dose: 100.0 mg/kg/injection, schedule: Q01DX009 (ip), vehicle: Klucel (hydroxypropylcellulose) (HPC) 110 % of control | endpoint: median survival time, dose: 200.0 mg/kg/injection, schedule: Q01DX009 (ip), vehicle: Klucel (hydroxypropylcellulose) (HPC) 114 % of control

CN(C)N=Nc1cccc(C(N)=O)c1
inactive: endpoint: mean survival time, dose: 5.0 mg/kg/injection, schedule: Q01DX009 (ip), vehicle: Klucel (hydroxypropylcellulose) (HPC) 112 % of control | endpoint: mean survival time, dose: 10.0 mg/kg/injection, schedule: Q01DX009 (ip), vehicle: Klucel (hydroxypropylcellulose) (HPC) 113 % of control | endpoint: mean survival time, dose: 20.0 mg/kg/injection, schedule: Q01DX009 (ip), vehicle: Klucel (hydroxypropylcellulose) (HPC) 117 % of control | endpoint: mean survival time, dose: 80.0 mg/kg/injection, schedule: Q01DX009 (ip), vehicle: Klucel (hydroxypropylcellulose) (HPC) 113 % of control | endpoint: mean survival time, dose: 108.0 mg/kg/injection, schedule: Q01DX009 (ip), vehicle: Klucel (hydroxypropylcellulose) (HPC) 93 % of control

CCOC(=O)C1C(=O)N(C)C(=O)N1C (stereo unspecified)
inactive: endpoint: mean survival time, dose: 5.56 mg/kg/injection, schedule: Q01DX009 (ip), vehicle: water 89 % of control | endpoint: mean survival time, dose: 8.33 mg/kg/injection, schedule: Q01DX009 (ip), vehicle: water 90 % of control | endpoint: mean survival time, dose: 12.5 mg/kg/injection, schedule: Q01DX009 (ip), vehicle: water 121 % of control and 92 % of control | endpoint: mean survival time, dose: 25.0 mg/kg/injection, schedule: Q01DX009 (ip), vehicle: water 95 % of control | endpoint: mean survival time, dose: 50.0 mg/kg/injection, schedule: Q01DX009 (ip), vehicle: water 93 % of control | endpoint: mean survival time, dose: 100.0 mg/kg/injection, schedule: Q01DX009 (ip), vehicle: water 95 % of control | endpoint: mean survival time, dose: 200.0 mg/kg/injection, schedule: Q01DX009 (ip), vehicle: water 98 % of control

CC(C)(C)OC(=O)NC(CSC(c1ccccc1)(c1ccccc1)c1ccccc1)C(=O)O (stereo unspecified)
inactive: endpoint: mean survival time, dose: 75.0 mg/kg/injection, schedule: Q01DX001 (ip), vehicle: saline 93 % of control

Nc1cccc(/C=C/c2cccc([N+](=O)[O-])c2)c1
inactive: endpoint: mean survival time, dose: 100.0 mg/kg/injection, schedule: Q04DX002 (ip), vehicle: Klucel (hydroxypropylcellulose) (HPC) 98 % of control | endpoint: mean survival time, dose: 200.0 mg/kg/injection, schedule: Q04DX002 (ip), vehicle: Klucel (hydroxypropylcellulose) (HPC) 103 % of control | endpoint: mean survival time, dose: 400.0 mg/kg/injection, schedule: Q04DX002 (ip), vehicle: Klucel (hydroxypropylcellulose) (HPC) 103 % of control

O=C(O)c1ccccc1.[Cu+2]
inactive: endpoint: mean survival time, dose: 5.0 mg/kg/injection, schedule: Q01DX001 (ip), vehicle: saline 96 % of control | endpoint: mean survival time, dose: 10.0 mg/kg/injection, schedule: Q01DX001 (ip), vehicle: saline 91 % of control | endpoint: mean survival time, dose: 20.0 mg/kg/injection, schedule: Q01DX001 (ip), vehicle: saline 107 % of control | endpoint: mean survival time, dose: 40.0 mg/kg/injection, schedule: Q01DX001 (ip), vehicle: saline 102 % of control | endpoint: mean survival time, dose: 80.0 mg/kg/injection, schedule: Q01DX001 (ip), vehicle: saline 107 % of control

CC1(CC#N)CO1 (stereo unspecified)
inactive: [5] 96 % of control | [6] 96 % of control | [7] 96 % of control

O=C(Nc1ccc(F)c(Cl)c1)Oc1ccc(F)cc1Cl
inactive: [2] 103 % of control | [3] 104 % of control | [4] 92 % of control

O=C1OC2C3CC4C2OC(=O)C4C13 (stereo unspecified)
inactive: [2] 102 % of control | [3] 98 % of control | [4] 90 % of control

ClC(Cl)(Cl)C1OCCO1
inactive: [2] 95 % of control | [5] 97 % of control | [3] 104 % of control | [6] 102 % of control | [4] 91 % of control | [7] 97 % of control

C1CCC2C3CCC(O3)C2C1 (stereo unspecified)
inactive: endpoint: mean survival time, dose: 100.0 mg/kg/injection, schedule: Q04DX003 (ip), vehicle: saline sonified 96 % of control | endpoint: mean survival time, dose: 200.0 mg/kg/injection, schedule: Q04DX003 (ip), vehicle: saline sonified 96 % of control | endpoint: mean survival time, dose: 400.0 mg/kg/injection, schedule: Q04DX003 (ip), vehicle: saline sonified 92 % of control

O=c1[nH]c2ccccc2c2ccccc2[nH]c(=O)c2ccccc12
inactive: [12] 98 % of control | [13] 102 % of control | [14] 102 % of control

O=[N+]([O-])c1cc(S(=O)(=O)F)ccc1Cl
inactive: [11] 100 % of control | endpoint: mean survival time, dose: 25.0 mg/kg/injection, schedule: Q01DX009 (ip), vehicle: saline with Tween-80 94 % of control | [1] 97 % of control and 103 % of control

COc1cc(OC)c(/C=C/c2ccc3ccccc3[n+]2C)c(OC)c1
inactive: endpoint: mean survival time, dose: 0.31 mg/kg/injection, schedule: Q01DX009 (ip), vehicle: saline 103 % of control | endpoint: mean survival time, dose: 0.62 mg/kg/injection, schedule: Q01DX009 (ip), vehicle: saline 114 % of control | endpoint: mean survival time, dose: 1.25 mg/kg/injection, schedule: Q01DX009 (ip), vehicle: saline 121 % of control
